Measured values: patent US6593365B1, “Diflunisal esters and related compounds” (The University of Queensland, priority 1997, dated 2003)
Values joined by “and” are separate entries in the source; they are usually repeats but may differ in a detail not shown here. Equal values may be shown once. Marks after values point to notes of the source that are not given here.

Key:
[1] = Intrinsic (maximum) solubility in water at pH 1.5; assay type: physicochemical; settings: for solubility: 25 °C, pH 1.5, simulated gastric fluid
Protocol: The pH conditions were chosen to ensure that the solubility of the unionised species was estimated. […] Lea & Febiger/Philadelphia. […] […] The solvent (9.9 mL) was then added to the test tube. […] The test tube was sonicated for 15 minutes and centrifuged for 10 minutes (3000 g at 25° C.). An aliquot was filtered (Minisart 0.45 μm filter, Satorius) and diluted with HPLC mobile phase, then assayed. The tube was stored carefully in a 25° C. water bath after sampling and the remaining suspension was again sonicated and the process repeated 7 times at four hourly intervals. In these assays, standard curves were prepared by directly dissolving the esters in mobile phase. Concentrations for standard curves ranged from 1-50 μg/mL for all compounds. Furthermore, a manual injector (Waters Model U6K) was used (20 μL sample loop) which ensured that 20 μL was consistently injected onto the column and precluded the need for an internal standard.

[2] = system: in-situ perfused rat liver; assay: In-situ rat liver perfusion bolus studies, moments and dispersion model analysis (Example 3); assay type: in vitro ADME, Sprague-Dawley rats; settings: n = 3, Mean S.E.; for RN (efficiency number) / a (dispersion model): determined using equation 5 & 6; for CV^2 (normalized variance) / F (hepatic availability) / MTT (mean transit time): moments analysis, bolus, 30 mL/min; for CV^2 (normalized variance) / F (hepatic availability) / MTT (mean transit time) / Efflux rate coefficient (k2) / Elimination rate coefficient (kel) / Influx rate coefficient (k1): 2% BSA perfusate; for Efflux rate coefficient (k2) / Elimination rate coefficient (kel) / Influx rate coefficient (k1): two-compartment dispersion model fitting
Protocol: Mature female Sprague-Dawley rats were obtained from the University of Queensland Animal Breeding Facility and weighed between 180-270 grams. The animals were given access to a standard laboratory diet prior to experiment. Rats were anaesthetised by interperitoneal injection of pentobarbital sodium (60 mg/kg, Boehringer Ingelhein). […] The bile duct was cannulated with PE10 (Clay Adams, New Jersey). 0.025 gm/L taurocholic acid (Sigma Co., USA.) was dissolved in perfusate to stimulate bile production. The portal vein was then cannulated using a 16 G intravenous catheter and the liver was perfused via this cannula with 2% BSA Krebs-Henseleit bicarbonate buffer (pH 7.4) and oxygenated using a silastic tubing lung ventilated with carbogen (95% O2/5% CO2). The perfusion system used was non-recirculating and employed a peristaltic pump (Cole-Parmer, Illinois).
The animal was placed in a temperature controlled perfusion cabinet at 37° C. Liver viability was assessed by oxygen consumption, bile flow, diflunisal esters' extraction and macroscopic appearance.
Perfusions were made at 30 mL/min in each liver. After a 10 minute perfusion stabilization period, injectate (50 μL) containing Evans Blue (3 mg/mL) and [^3H]-water in a saturated solution of the particular O-acyl diflunisal ester or pregenerated diflunisal (which was injected as parent compound) in 2% BSA Krebs-Henseleit buffer, was injected into the liver with outlet samples collected via a fraction collector over one minute.
Aliquots (100 μL) of pooled perfusate samples were taken for Evans Blue spectrophotometric analysis and [^3H]-water scintillation counting before adjusting pH. These pooled samples were then acidified to pH 2.0 by addition of 1 M HCl and extracted into 2.5 volumes of ether. […] The ether fraction was then removed and reduced to approximately 100 μL by evaporation under air and prepared as before for HPLC analysis. A known concentration of each buffer solution of ester was concurrently extracted and assayed with the perfusate samples to assess the degree of spontaneous hydrolysis occurring over the duration of the extraction procedure. This non-enzymatic hydrolysis was converted for in the analysis. The total recovery of diflunisal esters extracted using this technique was >90%.
The F, MTT and CV^2 for the diflunisal esters (or pregenerated DF) and the reference solutes (EB and [^3H]-water) were determined from the outflow concentration versus time profile using equation (1)-(4), with the assistance of the Moments Calculator 2.2 program for Macintosh computer developed by Robert Purves (Purves RD, 1994, J. Pharm. Sci. 83 202-205). [formula] [formula]
where Q is the perfusate flow rate, D is the dose of diflunisal esters administered. The area under the concentration-time curve (AUC) and the first moment curve (AUMC) were estimated by the trapezoidal rule integration with appropriate modification for tail (Mellick et al., 1996, submitted for publication). [formula]
The moment data was further examined using the dispersion model of hepatic elimination which defines F of an extracted solute by the equation (Roberts et al., 1990, J. Pharmacokin. Biopharm. 18 209-234): [formula]
a={square root over (1+4RNDN)} (6)
DN is the dispersion number which describes the spread of solute residence times in the liver following bolus input and equal half the normalized variance for a non-extracted reference indicator [formula]
RN is the efficiency number which characterises the elimination of solute by the liver and is defined by the equation: [formula]
(Gillette, 1971, Ann. N. Acad. Sci. 179 43-61)), and Q is the perfusate flow rate. If F for a solute and the CV^2 for a non-extracted reference solute (eg. EB) are known, we can solve for “a” using equation (5) and then for “RN” using equation (6).
The dispersion model expressions (Roberts et al., 1990) for MTT and CV^2 are presented in equations (8) and (9). [formula] [formula] […]

[3] = biological target: T1, BSA (bovine serum albumin) (Bos taurus, UniProt P02769); settings: 2% BSA; Hung et al., 1996; cited from earlier work
T1 construct: BSA (bovine serum albumin, fraction V, Sigma); purchased Sigma; host or cells: bovine serum (fraction V)
T1 sequence (P02769 25-607): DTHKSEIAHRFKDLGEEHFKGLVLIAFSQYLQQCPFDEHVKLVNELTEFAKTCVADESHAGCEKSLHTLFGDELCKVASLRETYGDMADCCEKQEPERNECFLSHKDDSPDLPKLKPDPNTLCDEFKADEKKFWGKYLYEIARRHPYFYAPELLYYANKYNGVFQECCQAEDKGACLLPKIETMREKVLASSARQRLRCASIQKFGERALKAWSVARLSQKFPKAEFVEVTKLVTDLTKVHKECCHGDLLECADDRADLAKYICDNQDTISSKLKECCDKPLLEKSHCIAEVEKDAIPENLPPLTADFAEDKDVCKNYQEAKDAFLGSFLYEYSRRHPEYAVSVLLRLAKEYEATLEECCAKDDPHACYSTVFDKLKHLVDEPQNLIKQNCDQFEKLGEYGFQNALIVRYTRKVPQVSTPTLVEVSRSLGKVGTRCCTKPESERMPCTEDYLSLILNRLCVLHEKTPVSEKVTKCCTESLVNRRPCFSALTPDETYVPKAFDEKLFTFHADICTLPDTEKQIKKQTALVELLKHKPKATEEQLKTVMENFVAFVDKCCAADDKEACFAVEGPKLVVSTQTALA

Structure (SMILES) | Maximum solubility ([1]; water at pH 1.5, 25 1° C., U = Undetectable) | RN (efficiency number) [2] | a (dispersion model) [2] | CV^2 (normalized variance) [2] | F (hepatic availability) [2] | MTT (mean transit time) [2] | RN/fub (removal of unbound solute) [2] | RN/fub (removal of unbound solute) ([2]; listed as acetyl) | Efflux rate coefficient (k2) [2] | Elimination rate coefficient (kel) [2] | Influx rate coefficient (k1) [2] | fub (unbound fraction) [3] | solubility [1] | RN/fub (removal of unbound solute) ([2]; listed as hexanoyl)
CC(=O)Oc1ccc(-c2ccc(F)cc2F)cc1C(=O)O [Compound C2D, acetyldiflunisal] | 30 µM | 2.58 ± 0.02 | 2.26 ± 0.02^c | 0.70 ± 0.19 | 0.21 ± 0.03 | 10.36 ± 2.31 s | 9.57 ± 0.37 | 9.57 | 0.25 ± 0.03 s⁻¹ | 0.18 ± 0.02 s⁻¹ | 1.20 ± 0.11 s⁻¹ | 0.27 ± 0.02 | – | –
CCCC(=O)Oc1ccc(-c2ccc(F)cc2F)cc1C(=O)O [Compound C4D, n-butanoyldiflunisal] | – | 1.56 ± 0.02 | 1.87 ± 0.01 | 1.01 ± 0.18 | 0.34 ± 0.01 | 7.73 ± 0.99 s | 11.17 ± 0.38 | – | 0.08 ± 0.04 s⁻¹ | 0.16 ± 0.07 s⁻¹ | 0.41 ± 0.12 s⁻¹ | 0.14 ± 0.01 | – | –
CCCC(=O)Oc1ccccc1C(=O)O [Compound C4SA, n-butanoylsalicylic acid] | – | – | – | – | – | – | – | – | – | – | – | – | 570 µg/mL and 2700 µM | –
CCCCC(=O)Oc1ccc(-c2ccc(F)cc2F)cc1C(=O)O [Compound C5D, n-pentanoyldiflunisal] | – | 1.32 ± 0.03 | 1.77 ± 0.02 | 1.02 ± 0.33 | 0.38 ± 0.02 | 6.62 ± 0.84 s | 11.04 ± 0.39 | – | 0.14 ± 0.07 s⁻¹ | 0.18 ± 0.06 s⁻¹ | 0.51 ± 0.16 s⁻¹ | 0.12 ± 0.01 | – | –
CCCCC(=O)Oc1ccccc1C(=O)O [Compound C5SA, n-pentanoylsalicylic acid] | – | – | – | – | – | – | – | – | – | – | – | – | 74 µg/mL and 330 µM | –
CCCCCC(=O)Oc1ccc(-c2ccc(F)cc2F)cc1C(=O)O [Compound C6D, n-hexanoyldiflunisal] | – | 1.32 ± 0.03 | 1.77 ± 0.03 | 1.15 ± 0.48 | 0.38 ± 0.04 | 6.19 ± 0.95 s | 16.50 ± 0.22 | – | 0.06 ± 0.03 s⁻¹ | 0.15 ± 0.03 s⁻¹ | 0.63 ± 0.24 s⁻¹ | 0.08 ± 0.00 | – | 16.50
CCCCCC(=O)Oc1ccccc1C(=O)O [Compound C6SA, n-hexanoylsalicylic acid] | – | – | – | – | – | – | – | – | – | – | – | – | 19 µg/mL and 80 µM | –
O=C(O)c1cc(-c2ccc(F)cc2F)ccc1O [DF, 2′,4′-difluoro-4-hydroxy-3-biphenylcarboxylic acid, reference compound] | – | – | 1.33 ± 0.01 | 0.99 ± 0.27 | – | 6.80 ± 0.94 s | 9.51 ± 0.18 | – | 0.02 ± 0.01 s⁻¹ | 0.06 ± 0.01 s⁻¹ | 0.18 ± 0.03^b sec^−1 | – | – | –
